Assay [1] relates to PAF Induced Bronchoconstriction. Put plainly: PAF induced bronchoconstriction assay, oral testing. The format is in vivo, guinea pig. The note with it: Cavia porcellus, po, 2 hr; for ED50: p.o., read-out: Bronchoconstriction ID-50 p.o. 2 hr; for inhibition in vivo at 0.3 mg/kg: at a dose of 0.3 mg/kg p.o.
Assay [2] has the same test system. Put plainly: PAF induced bronchoconstriction assay, intravenous testing. The settings on record: Cavia porcellus, iv, 1 min, i.v., 1 minute pretreatment, PAF 1 μg/kg i.v., read-out: Bronchoconstriction ID-50 i.v. The format is in vivo, guinea pig. On the procedure: Male animals (Hartlet Strain, 400-500 g were anesthetized with urethane (2 g/kg, i.p.). Each animals' trachea was cannulated and the guinea pigs were respirated using a Harvard small animal rodent respirator (3.0 cc stroke volume, 40 breaths per min.). Tracheal pressure was recorded from a cannula inserted in the trachea and connected to a Statham pressure transducer.
The jugular vein was cannulated for administering compounds. Spontaneous breathing was arrested with succinylcholine (1.2 mg/kg, i.v.) administered 2 minutes prior to intravenous injection of platelet activating factor PAF).
For the intravenous testing, the guinea pig is given a 1-minute pretreatment with propranolol at a dose of 0.1 mg/kg intravenously. The test compound is administered with a 1 minute pretreatment prior to intravenous challenge with PAF. The animal is then challenged with a 1 μg/kg intravenous dose of PAF and the change in tracheal pressure is measured.
The change in tracheal pressure is determined by subtracting the steady state baseline achieved after administration of succinylcholine from the peak broncho. constriction seen after challenge with PAF. The mean is calculated for each test compound and compared to the mean of the control animals to give the percent inhibition of bronchoconstriction. The standard error is calculated as the standard error of the mean.

Assay [3] addresses T1, PAF-binding, dog platelets (Canis lupus familiaris, UniProt A0A8I3NSH0).
T1 construct: dog platelets; from tissue; host or cells: washed platelets from citrated dog blood
T1 sequence (A0A8I3NSH0 1-343): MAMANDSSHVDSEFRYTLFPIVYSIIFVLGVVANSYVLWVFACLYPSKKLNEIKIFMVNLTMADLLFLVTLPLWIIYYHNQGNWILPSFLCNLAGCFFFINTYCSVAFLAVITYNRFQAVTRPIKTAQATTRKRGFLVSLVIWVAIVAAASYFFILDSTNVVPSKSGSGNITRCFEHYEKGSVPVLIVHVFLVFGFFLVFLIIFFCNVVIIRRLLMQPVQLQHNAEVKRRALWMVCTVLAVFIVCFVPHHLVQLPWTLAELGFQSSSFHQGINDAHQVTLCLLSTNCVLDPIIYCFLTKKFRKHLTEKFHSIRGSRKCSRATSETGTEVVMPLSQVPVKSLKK
The assay can be described thus: PAF binding assay (radiolabelled H-PAF, washed dog platelets). The note with it: 10 minutes at room temperature, read-out: PAF-binding IC-50. On the procedure:
The binding assay was done in […] polyethylene microcentrifuge tubes (Beckman) containing 50 μl of an oil mixture of 2 parts Siliconol AR200 (Serva): 1 part Silicone Fluid (Arthur H. Thoma). Buffer, standards, or analogs (150 μl total volume) were added to the tubes. Radiolabelled H-PAF (50 μl) was then added to the tubes. The reaction was started by the addition of 50 μl of dog platelets (2×10^7 platelets). The tubes were capped, inverted several times to mix, and incubated for 10 minutes at room temperature. The platelets were separated from the incubation mixture by centrifuging 1 minute in a Beckman Microfuge B centrifuge. The tip of the microfuge tube was cut off, and the platelets were washed out of the tip with 200 μl of 50% methanol (Burdick and Jackson). Aquasol (NEN, 10 ml) was added and the radioactivity in the samples was determined using an LS 8100 Beckman liquid scintillation counter linked to a Techtran tape recorder Data was processed through an in-house computer system. Alternatively, radioactivity was determined using a Searle Mark III liquid scintillation counter linked to a Iso-Data microprocessor.
(b) preparation of platelets
Blood was collected from anesthesized or unanesthesized dogs into 50 ml plastic centrifuge tubes containing 3.8% sodium citrate as the anticoagulant (1 volume of citrate/9 volumes of blood). The red cells were removed by centrifugation for 15 minutes at 600 rpm (100-125 g) at room temperature. An aliquot of the supernatant platelet rich plasma (PRP) was saved for cell counting and the remainder was acidified to pH 6.5 with 0.15M citric acid. The platelet pellet was obtained after a 10 minute centrifugation at 2000 rpm (1000 g) at room temperature. Washed platelets were prepared by resuspending the platelet pellet once with pBS containing 1 mM EDTA, centrifuging as noted, and then resuspending the platelets in 0.1% BSA pBS. An aliquot of the washed platelets was counted. Platelets used for binding assays were diluted to 2×10^7 platelets/assay tube (4×10^8 platelets/ml). platelet countinq was done using a Royco Cell-Crit 921.

The mark [4] stands for this setting: Table I, triazolothienodiazepines.
Where [5] appears, read: Table II, triazolobenzodiazepines.

The values below come from patent US4959361A, “Triazolo(4,3-A)(1,4)benzodiazepines and thieno (3,2-F)(1,2,4)triazolo(4,3-A)(1,4)diazepine compounds which have useful activity as platelet activating factor (PAF) antagonists” (Hoffmann-La Roche Inc., priority 1988, dated 1990).

Where two headings read alike, the source gives them in different places. Where only a bound is given, the exact number is not on record here.

With `Cc1nnc2n1-c1sc(C#CCN3C(=O)COc4ccccc43)cc1C(c1ccccc1Cl)=NC2`, the ED50 amounted to 0.019 mg/kg in assay [1] (Table I) and 0.007 mg/kg in assay [2] (Table I). Besides, the IC50 in assay [3] (setting [4]) was found to be 0.7 nM.

Consider `Cc1nnc2n1-c1sc(C#CCN3C(=O)C(=O)c4ccccc43)cc1C(c1ccccc1Cl)=NC2`, for which the ED50 in assay [1] (Table I) is 0.06 mg/kg; in assay [2] (Table I), under 0.1 mg/kg. For the same compound, the IC50 in assay [3] (setting [4]) was found to be 7 nM.

As for `Cc1nnc2n1-c1sc(C#CCN3C(=O)COc4ccc(Cl)cc43)cc1C(c1ccccc1Cl)=NC2`, the values for the ED50 in assay [1] (Table I) and in assay [2] (Table I) were 0.049 mg/kg and 0.004 mg/kg, respectively. For the same compound, the IC50 in assay [3] (setting [4]) is under 1 nM.

With `Cc1nnc2n1-c1sc(C#CCN3C(=O)C4(C)CCCc5cccc3c54)cc1C(c1ccccc1Cl)=NC2` (stereo not drawn), the figures for the ED50 in assay [1] (Table I) and in assay [2] (Table I) were 0.03 mg/kg and 0.013 mg/kg, respectively. Further, in assay [3] (setting [4]), the IC50 was 12 nM.

As for `CCc1nnc2n1-c1ccc(C#CCN3C(=O)c4ccccc4C3=O)cc1C(c1ccccc1F)=NC2` [2-[3-[1-Ethyl-6-(2-fluorophenyl)-4H-[1,2,4]triazolo[4,3-a][1, 4]benzodiazepin-8-yl]-2-propynyl]-1H-isoindole-1,3(2H)dione semihydrate], the ED50 is 1.5 mg/kg in assay [1] (Table II) and 0.054 mg/kg in assay [2] (Table II). Also, the IC50 in assay [3] (setting [5]) came out at 100 nM.

Compound `Cc1nnc2n1-c1sc(C#CCC34CCCc5cccc(c53)NC4=O)cc1C(c1ccccc1Cl)=NC2` (stereo not drawn) returned an inhibition in vivo at 0.3 mg/kg in assay [1] (Table I) of 24%. In assay [2] (Table I), the ED50 was found to be 0.008 mg/kg. The IC50 in assay [3] (setting [4]) came out at 0.7 nM.

Take `Cc1nnc2n1-c1sc(C#CCn3cnc4c3c(=O)n(C)c(=O)n4C)cc1C(c1ccccc1Cl)=NC2`: the inhibition in vivo at 0.3 mg/kg in assay [1] (Table I) came to 27%. Besides, in assay [2] (Table I), the ED50 was found to be 0.043 mg/kg. Besides, in assay [3] (setting [4]), the IC50 was determined as 20 nM.

Regarding `Cc1nnc2n1-c1ccc(C#CCCc3ccccc3)cc1C(c1ccccc1F)=NC2`, the ED50 in assay [1] (Table II) was over 0.3 mg/kg; in assay [2] (Table II), 0.006 mg/kg. For the same compound, the IC50 in assay [3] (setting [5]) is under 1 nM.

As to `Cc1nnc2n1-c1ccc(C#CCN3C(=O)c4ccccc4C3=O)cc1C(c1ccccc1Cl)=NC2`, the ED50 in assay [1] (Table II) stood at 1.4 mg/kg; in assay [2] (Table II) it was 0.019 mg/kg. Also, the IC50 in assay [3] (setting [5]) was 20 nM.

For orientation: inhibition in vivo means the percentage by which the read-out fell short of the control. A high value points to a strong effect.
